{"source": "patent US10787442B2", "about": "“Modulators of indoleamine 2,3-dioxygenase” (GLAXOSMITHKLINE INTELLECTUAL PROPERTY DEVELOPMENT LIMITED, priority 2016, dated 2020)", "key": {"[1]": {"system": "human peripheral blood mononuclear cells (PBMC)", "assay": "PBMC cytotoxicity assay (CellTiter-Glo)", "assay_type": "cell-based", "details": "cytotoxicity in stimulated PBMC, recorded as pCC50"}, "ePL tagged IDO1": {"target": "T1, ePL tagged IDO1 (Homo sapiens, UniProt P14902)", "T1 construct": "expressed in transfected cells; host or cells: HeLa cells transduced with BacMam virus", "T1 sequence (P14902 whole entry)": "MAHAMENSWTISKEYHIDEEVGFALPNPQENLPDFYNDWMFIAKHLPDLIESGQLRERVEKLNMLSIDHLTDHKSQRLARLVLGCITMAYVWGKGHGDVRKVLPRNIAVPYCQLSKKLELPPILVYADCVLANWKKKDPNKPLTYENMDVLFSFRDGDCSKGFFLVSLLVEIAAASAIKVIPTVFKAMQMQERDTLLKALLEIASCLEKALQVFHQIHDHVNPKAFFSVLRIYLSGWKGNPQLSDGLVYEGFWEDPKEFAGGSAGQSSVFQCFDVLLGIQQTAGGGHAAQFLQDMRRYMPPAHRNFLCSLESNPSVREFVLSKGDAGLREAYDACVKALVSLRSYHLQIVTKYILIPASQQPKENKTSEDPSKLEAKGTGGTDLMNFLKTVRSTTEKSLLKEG", "assay": "CETSA (Cellular Thermal Shifting assay)", "assay_type": "binding", "details": "Hela cells, 3 hours at 37° C., heated at 53° C. for 3 min", "protocol": "Cellular Thermal Shifting assays were used to directly monitor the ligand binding to target proteins in cells. Hela cells were transduced with BacMam virus expressing ePL tagged IDO1 overnight. The cells were then plated over the compounds for 3 hours at 37° C. in cell culture medium containing 1% FBS. The plates were then sealed and heated at 53° C. for 3 min. InCell Hunter reagents were added and luminescence was read in 90 min."}, "[2]": {"assay": "Toxicokinetics in Beagle dogs, 7 day repeat oral administration", "assay_type": "in vivo, Beagle dog", "details": "for Tmax / Cmax / AUC(0-t): Beagle, dog, plasma; for Therapeutic Index AUC (0-12 hr): versus predicted human efficacious AUC; for Therapeutic Index Cmax: versus predicted human efficacious Cmax; for Cmax / AUC(0-t): po; for AUC(0-t): read-out: AUC (0-12 hr)", "excerpt": "To understand its toxicokinetics and potential effect on hepatic functions, EXAMPLE 6 was orally dosed to Beagle dogs for 7 consecutive days."}, "[3]": {"details": "female, 20 mg/kg, Day1, Female, 20 mg/kg PO BID"}, "[4]": {"details": "female, 20 mg/kg, Day7, Female, 20 mg/kg PO BID"}, "[5]": {"details": "male, 20 mg/kg, Day1, Male, 20 mg/kg PO BID"}, "[6]": {"details": "male, 20 mg/kg, Day7, Male, 20 mg/kg PO BID"}}, "note": "Where two headings read alike, the source gives them in different places."}
{"smiles": "CC(C)CN(c1ncc([C@H](C)CC(=O)O)cc1Nc1ccc(Cl)cn1)C1CCOCC1", "note": "[Example 6, (R)-3-(5-((5-chloropyridin-2-yl)amino)-6-(isobutyl(tetrahydro-2H-pyran-4-yl)amino)pyridin-3-yl)butanoic acid]", "values": [{"measurement": "PBMC_TOX PXC50", "setting": "[1]", "value": "<5.0"}, {"measurement": "EC50", "setting": "ePL tagged IDO1; first value, read-out: pXC50_1 (converted)", "value": 0.575, "unit": "µM"}, {"measurement": "EC50", "setting": "ePL tagged IDO1; second value, read-out: pXC50_2 (converted)", "value": 0.759, "unit": "µM"}, {"measurement": "Tmax", "setting": "[2]; oral, 20 mg/kg, post dose on Days 1 and 7", "value": 30, "unit": "min"}, {"measurement": "Tmax", "setting": "[2]; Day1, Female, 20 mg/kg PO BID", "value": 30, "unit": "min"}, {"measurement": "Tmax", "setting": "[2]; Day1, Male, 20 mg/kg PO BID", "value": 30, "unit": "min"}, {"measurement": "Therapeutic Index AUC (0-12 hr)", "setting": "[2]; Day1, Female, 20 mg/kg", "value": 15}, {"measurement": "Therapeutic Index Cmax", "setting": "[2]; Day1, Female, 20 mg/kg", "value": 86}, {"measurement": "Therapeutic Index AUC (0-12 hr)", "setting": "[2]; Day1, Male, 20 mg/kg", "value": 25}, {"measurement": "Therapeutic Index Cmax", "setting": "[2]; Day1, Male, 20 mg/kg", "value": 237}, {"measurement": "average therapeutic coverage in AUC for the predicted human efficacious dose", "setting": "[2]; Day 7", "value": "~34", "unit": "fold"}, {"measurement": "average therapeutic coverage in Cmax for the predicted human efficacious dose", "setting": "[2]; Day 7", "value": "~147", "unit": "fold"}, {"measurement": "Therapeutic Index AUC (0-12 hr)", "setting": "[2]; Day7, Female, 20 mg/kg", "value": 51}, {"measurement": "Therapeutic Index Cmax", "setting": "[2]; Day7, Female, 20 mg/kg", "value": 102}, {"measurement": "Therapeutic Index AUC (0-12 hr)", "setting": "[2]; Day7, Male, 20 mg/kg", "value": 18}, {"measurement": "Therapeutic Index Cmax", "setting": "[2]; Day7, Male, 20 mg/kg", "value": 191}, {"measurement": "quantifiable in plasma post the start of the oral dose", "setting": "[2]; Days 1 and 7", "value": "up to 24 hours"}, {"measurement": "Cmax on Days 1 and 7", "setting": "[2]; female dog", "value": "comparable"}, {"measurement": "increase in AUC0-12 following 7 day repeat dosing", "setting": "[2]; female dog", "value": "~3", "unit": "fold"}, {"measurement": "Cmax", "setting": "[2]; [3]", "value": 3.7, "unit": "µg/mL"}, {"measurement": "AUC(0-t)", "setting": "[2]; [3]", "value": 5.2, "unit": "µg·h/mL"}, {"measurement": "Cmax", "setting": "[2]; [4]", "value": 4.4, "unit": "µg/mL"}, {"measurement": "AUC(0-t)", "setting": "[2]; [4]", "value": 17.9, "unit": "µg·h/mL"}, {"measurement": "systemic exposure (Cmax and AUC0-12 values) on Days 1 and 7", "setting": "[2]; male dog", "value": "similar"}, {"measurement": "Cmax", "setting": "[2]; [5]", "value": 10.2, "unit": "µg/mL"}, {"measurement": "AUC(0-t)", "setting": "[2]; [5]", "value": 8.7, "unit": "µg·h/mL"}, {"measurement": "Cmax", "setting": "[2]; [6]", "value": 8.2, "unit": "µg/mL"}, {"measurement": "AUC(0-t)", "setting": "[2]; [6]", "value": 6.5, "unit": "µg·h/mL"}]}
